Source: article PMC9176062, “Phase Ib study of combinations of avadomide (CC‐122), CC‐223, CC‐292, and rituximab in patients with relapsed/refractory diffuse large B‐cell lymphoma” (EJHaem, 2022)

Legend:
DOHH2 and RL cells = experiment: Antibody-dependent, cell-mediated cytotoxicity (NK cells vs tumor cells, flow cytometry); assay type: cell-based; details: two DLBCL cell lines; NK cells pretreated with avadomide 1–100 nM, rituximab 1 μg/mL
Experimental: Purified natural killer (NK) cells from patient peripheral blood mononuclear cell samples were treated with 10 ng/mL rh-IL-2 (R&D) alone or with avadomide (1–100 nM) for 24 hours at 37°C. Cells (1 × 10^6 cells/mL) from 2 FL cell lines, DOHH2 and RL, were stained with CellTrace carboxyfluorescein succinimidyl ester (CFSE; Thermo Fisher Scientific) (200 nmol/L) for 5 minutes at room temperature, then treated with dimethyl sulfoxide (DMSO; vehicle) or rituximab (1 μg/mL) for 1 hour prior to coculture. Target tumor DOHH2 and RL cells (2 × 10^4 cells) were added to DMSO or avadomide pretreated effector NK cells at a 1:5 ratio (target to effector cells) and were incubated for 4 hours at 37°C. Cells were stained with Annexin V-PE and TO-PRO-3 (Thermo Fisher Scientific) according to the manufacturer’s instructions. The percentage of tumor apoptosis was determined by sequential gating for CFSE-positive and double-positive (Annexin V-PE and TO-PRO-3–positive) cells.
FIGURE S1 Change in the percentage of apoptotic cells over time (A) and in vivo tumor growth response after combination treatment with avadomide and rituximab (B). Natural killer cell activity against DOHH or RL FL cell lines determined by flow cytometry is shown (A). […]

patients with R/R DLBCL = experiment: Treatment duration, modification, and exposure; assay type: in vivo; details: human, in vivo
Experimental: CC‐122 hydrochloride, referred to here as CC‐122, as an active pharmaceutical ingredient in capsule (AIC) formulation, was administered orally once daily (QD). An alternate intermittent schedule of CC‐122 QD for five of every seven consecutive days (5/7), which improved tolerability and reduced the frequency and severity of neutropenia in a study of CC‐122 monotherapy in DLBCL, was also explored. CC‐292 was administered orally twice daily (BID) and CC‐223 was administered orally QD. Rituximab was administered on day 8 of cycle 1, day 1 of cycles 2–6, and day 1 of every third cycle thereafter. Patients in arm A received CC‐122 and CC‐223 with or without rituximab (starting at CC‐122 2 mg QD and CC‐223 20 mg QD), patients in arm B received CC‐122 plus CC‐292 with or without rituximab (starting at CC‐122 2 mg QD and CC‐292 500 mg BID), patients in arm C were treated with CC‐223 and CC‐292 (starting at CC‐223 20 mg QD and CC‐292 500 mg BID), and those in arm D received CC‐122 plus rituximab (starting at CC‐122 2 mg QD). In arm D, a CC‐122 3 mg formulated capsule was introduced with the same strength as CC‐122 3 mg AIC. Each dose level was cleared before the next was started. If unacceptable toxicity occurred at the initial dose level, dose reductions for CC‐122 (1.5 mg QD and 1 mg QD) and CC‐223 (15 mg QD) were allowed; no starting dose reductions for CC‐292 were planned. For arm A, the Safety Review Committee (SRC) determined which of the two drugs in the doublet to reduce. For arms B and D, the CC‐122 dose was reduced and for arm C, the CC‐223 dose was reduced. Assignment of patients to study arms was at the discretion of the investigator and based on slot availability per the study design.
Patients who experienced dose‐limiting toxicity (DLT) after receiving ≥1 dose of study treatment or those who received ≥80% of planned doses of CC‐122, CC‐223, CC‐292, and rituximab during cycle 1 without experiencing a DLT were considered DLT‐evaluable. If zero out of ≥3 or ≤1 out of six evaluable patients in a cohort experienced a DLT during cycle 1 in parallel dose cohorts, then dose escalation could occur. DLTs are defined in the Supplementary Materials; individual investigators performed response assessments and determined DLTs. The NTD was defined as the dose level at which ≥2 of six evaluable patients in a cohort experienced a DLT during cycle 1. […] During cycle 1, any adverse event (AE) that led to dose reduction was considered a DLT. Patients could resume CC‐122 at a reduced dose only if they recovered to grade ≤1 within 14 days of dose interruption; two dose reductions were allowed before the patient was withdrawn from the study. Dose reductions were permitted for CC‐122, CC‐223, and CC‐292; no dose reductions were allowed for rituximab, but treatment could be discontinued at the discretion of the investigator. […] For arms A, B, and D, CC‐122 dosing was modified to the intermittent 5/7‐day schedule based on SRC review and escalated until the MTD/RP2D was established. Treatment was given until disease progression, unacceptable toxicity, or patient/physician decision to withdraw consent.
^aTreatment duration defined as date of last derived dose – date of first dose + 1.
^bDefined as the ratio of actual dose received to planned dose over the treatment period.

DOHH2 cells = experiment: DOHH2 xenograft model; assay type: in vivo; details: DLBCL xenograft model (DOHH2, SCID mice); avadomide oral once daily, rituximab 1 mg/kg once weekly
Experimental: Female severe combined immunodeficiency (SCID) mice (CB17/Icr-Prkdcscid, Charles River) were 8 weeks old, with body weights ranging from 15.0 g to 23.2 g on day 1 of these studies. Each SCID mouse was injected subcutaneously in the right flank with 5 × 10^6 DOHH2 cells (0.2-mL cell suspension). Tumors were calipered in 2 dimensions to monitor growth as their mean volume approached 100 to 150 mm^3. Fourteen days after tumor cell implantation, mice were sorted into treatment groups of 10 mice per group. Tumors were calipered twice weekly during the study. Avadomide was suspended in 0.5% carboxymethyl cellulose (0.25% Tween-80 in deionized water). Vehicle control and avadomide were each administered via oral gavage once daily; rituximab (1 mg/kg) was administered once weekly for the duration of the study.
FIGURE S1 Change in the percentage of apoptotic cells over time (A) and in vivo tumor growth response after combination treatment with avadomide and rituximab (B). Natural killer cell activity against DOHH or RL FL cell lines determined by flow cytometry is shown (A). Female CB17 severe combined immunodeficiency mice implanted subcutaneously with DOHH2 cells were administered vehicle and avadomide once daily and rituximab given 1 mg/kg once weekly (B). SEM, standard error of the mean; TGI, tumor growth inhibition. mm^3

Aiolos = experiment: Blood pharmacodynamic biomarker Aiolos in CD3+ T cells and CD19+ B cells; assay type: in vivo, human; details: arm B (with CC‐292), 3 h post‐dose; for median decline in Aiolos levels: 1 mg of CC‐122; for decline in Aiolos levels: 2‐mg CC‐122 group
Experimental: AEs were assessed according to the National Cancer Institute Common Terminology Criteria for AEs, version 4.03, up to 28 days after the last treatment. Blood samples for PK analysis were collected on days 15 to 28, predose, and at 1.5 and 3 h post‐dose on days 1 and 15 of cycle 1 for all dose cohorts. Additional blood samples were collected on day 15 from patients in dose level 2 of arm C to examine CC‐223 and CC‐292 steady‐state PK. Pharmacodynamic biomarkers of each novel agent were explored at baseline and cycle 1, day 1 (pre‐dose, and at 1.5 and 3 h) and cycle 1, day 15 (pre‐dose, and at 1.5 and 3 h), including cereblon modulation substrates in B and T cells in patients treated with CC‐122 and mTOR signaling pathway biomarkers (e.g., p4EBP1 and pAKT) in patients treated with CC‐223. Tumor assessments were performed at screening and at the end of even‐numbered cycles through cycle 6, then every three cycles through cycle 12, and every 6 months thereafter. Responses were assessed by the investigator per International Working Group 2007 criteria.
Safety analyses were performed on all patients who received ≥1 dose of study treatment (safety population). The PK population comprised all patients who took ≥1 dose of study treatment and had ≥1 measured drug concentration. […] The biomarker‐evaluable population comprised all patients who took ≥1 dose of study treatment and had ≥1 pharmacodynamic assessment. Safety and efficacy analyses were based on the safety population except where noted (PK and biomarkers). PK parameters were calculated using actual times relative to the most recent administration. The median duration of response (DOR) and median PFS were calculated per the Kaplan‐Meier method.
Per cent change from baseline in Aiolos in CD3+ T cells (A) and CD19+ B cells (B) and in p4EBP1 (C) and pAKT (D) at 3 h post‐dose on day 1 of cycle 1 (biomarker‐evaluable population). The change in Aiolos expression in CD3+ T cells and CD19+ B cells was calculated within each avadomide‐ and CC‐223‐containing arm. *p ≤ 0.05 versus baseline; **p ≤ 0.01 versus baseline; ***p ≤ 0.001 versus baseline; DL, dose level; MEFL, molecules of equivalent fluorescence label; NS, not significant

## Cc1nc2cccc(N)c2c(=O)n1C1CCC(=O)NC1=O (stereo not drawn) [CC‐122, Avadomide]
DOHH2 and RL cells
  rituximab‐mediated antibody‐dependent cell‐mediated cytotoxicity: enhancement
Patients with R/R DLBCL
  patients with dose reductions of the drug: 20.5%
  ≥1 dose interruption: 59 (67.0) n (%)
  ≥1 dose interruption: Adverse event: 49 (55.7) n (%)
  ≥1 dose interruption: Other: 35 (39.8) n (%)
  ≥1 dose interruption: Per protocol: 6 (6.8) n (%)
  ≥1 dose reduction: 18 (20.5) n (%)
  ≥1 dose reduction: Adverse event: 11 (12.5) n (%)
  ≥1 dose reduction: Other: 5 (5.7) n (%)
  ≥1 dose reduction: Per protocol: 1 (1.1) n (%)
DOHH2 cells
  tumor growth inhibition (TGI): 28%
Aiolos; CD3+ T cells
  median decline in Aiolos levels: approximately 20%
  decline in Aiolos levels: approximately 40%
Aiolos; CD19+ B cells
  median decline in Aiolos levels: ~5%
  decline in Aiolos levels: ~32%
